Literature values, collected in US10189872B2, “Crystalline form of nicotinamide riboside” (W. R. Grace & Co.-Conn., priority 2015, dated 2019).

Details: mice on a high-fat diet supplemented with nicotinamide riboside; 2012 study

NC(=O)c1ccc[n+]([C@@H]2O[C@H](CO)[C@@H](O)[C@H]2O)c1 [nicotinamide riboside, Nicotinamide riboside]
less weight gained than mice eating the same high-fat diet without nicotinamide riboside: 60%
